Data on 13 compounds can be found in patent US11225480B2, “Malic enzyme inhibitors” (SUN PHARMA ADVANCED RESEARCH COMPANY LTD, priority 2019, dated 2022).

What all share (assay type): biochemical
The target of one assay is T1, human ME3 enzyme (Homo sapiens, UniProt Q16798).
T1 sequence (Q16798 1-604): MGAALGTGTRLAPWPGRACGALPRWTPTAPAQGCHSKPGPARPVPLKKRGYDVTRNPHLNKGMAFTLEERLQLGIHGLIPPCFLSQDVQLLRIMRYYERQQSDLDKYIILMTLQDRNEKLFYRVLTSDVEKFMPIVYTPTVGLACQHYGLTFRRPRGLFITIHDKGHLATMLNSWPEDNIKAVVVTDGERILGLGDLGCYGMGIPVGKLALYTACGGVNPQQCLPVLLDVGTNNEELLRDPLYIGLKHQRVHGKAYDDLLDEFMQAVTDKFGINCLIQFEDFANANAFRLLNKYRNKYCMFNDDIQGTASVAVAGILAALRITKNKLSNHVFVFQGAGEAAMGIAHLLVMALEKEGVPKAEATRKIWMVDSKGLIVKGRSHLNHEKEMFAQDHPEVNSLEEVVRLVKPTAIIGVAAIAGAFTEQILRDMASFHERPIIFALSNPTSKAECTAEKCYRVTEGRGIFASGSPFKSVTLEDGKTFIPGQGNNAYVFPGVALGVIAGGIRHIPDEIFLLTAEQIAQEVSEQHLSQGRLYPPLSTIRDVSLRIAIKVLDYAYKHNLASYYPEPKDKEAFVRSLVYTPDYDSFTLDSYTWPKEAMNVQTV
Description: ME3 inhibition assay (diaphorase/resazurin coupled fluorescence). The conditions noted are these: 10 μM compound concentration; read-out: Malic Enzyme 3 % inhibition (10 μM). Here is the method: ME3 catalyzes the oxidative decarboxylation of malate to pyruvate with conversion of the co-factor β-NADP+ to NADPH. In the fluorescence assay, a coupled reaction is set up wherein an enzyme, Diaphorase, utilizes NADPH generated by ME3, to convert the dye resazurin to a fluorescent molecule resorufin.
The enzyme activity inhibition assay is set up in a 200 μL final reaction volume in a 96-well plate. As per the experimental design, 2 μL of the test compounds at 100× the desired concentration (10 μM) in DMSO were added to the respective wells with 178 μL of assay buffer (50 mM Tris-HCl pH 7.5, 10 mM MnCl2, 3 mM L-malate, 50 μM Resazurin and 0.025 mg/ml Diapharose). The 96-well plate was incubated on a plate shaker at room temperature for 15 minutes protected from light. The well contents were gently mixed by adding 10 μL of 20 nM human ME3 enzyme to the wells and the plate was incubated on a shaker at room temperature for 5 minutes protected from light. Suitable enzyme only and no enzyme controls were included in the experiment. The enzyme reaction was started by adding 10 μL of 1 mM D-NADP+. The reaction was gently mixed and the plate was initially left on a shaker at room temperature for ˜7 minutes protected from light. Later, the plate was incubated without shaking at room temperature for 3 hours. At the end of 3 hours, the fluorescence of the wells was measured at excitation 540 nm and emission 600 nm.

The next assay addresses human ME2 enzyme (Homo sapiens, UniProt P23368). Description: ME2 inhibition assay (diaphorase/resazurin coupled fluorescence). The conditions noted are these: 10 μM compound concentration; read-out: Malic Enzyme 2 % inhibition (10 μM). Here is the method:
ME2 catalyzes the oxidative decarboxylation of malate to pyruvate with conversion of the co-factor β-NAD+ to β-NADH. In the fluorescence assay, a coupled reaction is set up where in an enzyme, Diaphorase, utilizes NADH generated by ME2, to convert the dye resazurin to a fluorescent molecule resorufin. Resorufin has a characteristic fluorescence with excitation/emission at 540/600 nm (SLAS Discov., 2017 April 1:2472555217706649).
The enzyme activity inhibition assay is set up in a 200 μL final reaction volume in a 96-well plate. As per the experimental design, 2 μL of the compounds at 100× the desired concentration (10 μM) in DMSO were added to the respective wells with 178 μL of assay buffer (50 mM Tris-HCl pH 7.5, 10 mM MnCl2, 7 mM L-malate, 50 μM Resazurin and 0.025 mg/ml Diapharose). The 96-well plate was incubated on a plate shaker at room temperature for 15 minutes protected from light. The well contents were gently mixed by adding 10 μL of 60 nM human ME2 enzyme to the wells and the plate was incubated on a shaker at room temperature for 5 minutes protected from light. Suitable ‘enzyme only’ and ‘no enzyme’ controls were included in the experiment. The enzymatic reaction was started by adding 10 μL of 2 mM β-NAD+. The reaction was gently mixed and the plate was initially left on a shaker at room temperature for −7 minutes protected from light. Later, the plate was incubated without shaking at room temperature for 2 hours. At the end of 2 hours, the fluorescence of the wells was measured at excitation 540 nm and emission 600 nm. The % enzyme activity of the compounds is obtained by normalizing the data with enzyme only (100%) and no enzyme controls (0%) using GraphPad Prism software 7.04.

A further assay has as its target T2, human ME1 enzyme (Homo sapiens, UniProt P48163).
T2 sequence (P48163 1-572): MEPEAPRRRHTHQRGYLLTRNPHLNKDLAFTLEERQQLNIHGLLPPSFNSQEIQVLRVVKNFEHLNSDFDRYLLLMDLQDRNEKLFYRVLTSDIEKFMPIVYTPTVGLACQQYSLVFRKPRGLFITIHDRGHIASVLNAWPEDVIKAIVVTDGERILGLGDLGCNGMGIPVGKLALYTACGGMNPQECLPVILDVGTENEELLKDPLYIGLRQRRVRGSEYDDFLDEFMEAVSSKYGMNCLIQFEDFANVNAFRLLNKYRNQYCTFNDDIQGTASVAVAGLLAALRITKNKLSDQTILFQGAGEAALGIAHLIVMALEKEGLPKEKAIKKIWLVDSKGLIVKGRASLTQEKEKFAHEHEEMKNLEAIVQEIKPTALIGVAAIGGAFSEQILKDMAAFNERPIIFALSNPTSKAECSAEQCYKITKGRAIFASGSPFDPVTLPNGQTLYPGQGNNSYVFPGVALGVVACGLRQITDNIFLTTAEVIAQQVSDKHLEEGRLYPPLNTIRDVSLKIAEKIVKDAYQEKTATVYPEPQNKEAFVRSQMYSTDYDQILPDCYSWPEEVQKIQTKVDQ
Kind of assay: ME1 inhibition assay (diaphorase/resazurin coupled fluorescence). The conditions noted are these: 10 μM compound concentration; read-out: Malic Enzyme 1 % inhibition (10 μM). The protocol: ME1 catalyzes the oxidative decarboxylation of malate to pyruvate with conversion of the co-factor β-NADP+ to β-NADPH. In the fluorescence assay, a coupled reaction is set up where in an enzyme, Diaphorase, utilizes NADPH generated by ME1, to convert the dye resazurin to a fluorescent molecule resorufin. Resorufin has a characteristic fluorescence with excitation/emission at 540/600 nm (SLAS Discov., 2017 April 1:2472555217706649).
The enzyme activity inhibition assay is set up in a 200 μL final reaction volume in a 96-well plate. As per the experimental design, 2 μL of the compounds at 100× the desired concentration (10 μM) in DMSO were added to the respective wells with 178 μL of assay buffer (50 mM Tris-HCl pH 7.5, 10 mM MnCl2, 2 mM L-malate, 10 μM Resazurin and 0.01 mg/ml Diapharose). The 96-well plate was incubated on a plate shaker at room temperature for 15 minutes protected from light. The well contents were gently mixed by adding 10 μL of 20 nM human ME1 enzyme to the wells and the plate was incubated on a shaker at room temperature for 5 minutes protected from light. Suitable ‘enzyme only’ and ‘no enzyme’ controls were included in the experiment. The enzymatic reaction was started by adding 10 μL of 0.3 mM D-NADP+. The reaction was gently mixed and the plate was initially left on a shaker at room temperature for −7 minutes protected from light. Later, the plate was incubated without shaking at room temperature for 2 hours. At the end of 2 hours, the fluorescence of the wells was measured at excitation 540 nm and emission 600 nm. The % enzyme activity of the compounds is obtained by normalizing the data with enzyme only (100%) and no enzyme controls (0%) using GraphPad Prism software 7.04.

human ME2 enzyme, sequence (P23368 19-584): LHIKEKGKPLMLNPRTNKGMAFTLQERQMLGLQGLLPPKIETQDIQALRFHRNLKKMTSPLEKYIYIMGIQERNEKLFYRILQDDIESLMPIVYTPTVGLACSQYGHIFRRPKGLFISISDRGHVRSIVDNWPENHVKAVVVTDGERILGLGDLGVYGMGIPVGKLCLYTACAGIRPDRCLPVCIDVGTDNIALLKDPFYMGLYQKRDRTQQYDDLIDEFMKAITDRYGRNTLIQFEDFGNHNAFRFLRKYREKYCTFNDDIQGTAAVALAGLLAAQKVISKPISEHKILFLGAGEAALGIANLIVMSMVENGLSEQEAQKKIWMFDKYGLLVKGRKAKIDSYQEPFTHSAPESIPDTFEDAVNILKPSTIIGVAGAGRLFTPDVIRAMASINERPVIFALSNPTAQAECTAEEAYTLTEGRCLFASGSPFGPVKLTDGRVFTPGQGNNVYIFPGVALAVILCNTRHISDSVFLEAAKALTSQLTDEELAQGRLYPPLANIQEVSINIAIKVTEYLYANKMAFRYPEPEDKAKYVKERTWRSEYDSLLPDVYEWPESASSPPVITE

As usually defined, the inhibition is the change of the read-out against control, counted positive when it falls. Turning to `O=C([C@@H]1C[C@H]1c1ccccc1)N1CCN(c2ccc(O)cn2)CC1` (stereo in doubt) [I.133, [4-(5-hydroxypyridin-2-yl)-piperazin-1-yl]-((1R,2R)-2-phenylcyclopropyl)-methanone], the inhibition at 10 µM on human ME3 enzyme, on human ME2 enzyme and at human ME1 enzyme was over 90% in each case.

For `O=C(Cc1ccccc1)N1CCN(c2ccc(O)cc2)CC1` [I.1, 1-[4-(4-hydroxyphenyl)piperazin-1-yl]-2-phenylethanone], the inhibition at 10 µM on human ME3 enzyme, on human ME2 enzyme and at human ME1 enzyme was over 90% throughout.

Turning to `O=C(c1c[nH]c2ccccc12)N1CCN(c2ccc(O)cc2)CC1` [I.2], the inhibition at 10 µM on human ME3 enzyme, at human ME2 enzyme and on human ME1 enzyme was over 90% each time.

As for `O=C(Cc1ccc(O)cc1)N1CCN(c2ccc(O)cc2)CC1` [I.4, 2-(4-Hydroxy-phenyl)-1-[4-(4-hydroxy-phenyl)-piperazin-1-yl]-ethanone], the inhibition at 10 µM on human ME3 enzyme and at human ME1 enzyme was over 90% throughout.

On to `COCCOc1ccc(CC(=O)N2CCN(c3ccc(O)cc3)CC2)cc1` [I.5, 1-[4-(4-Hydroxy-phenyl)-piperazin-1-yl]-2-[4-(2-methoxy-ethoxy)-phenyl]-ethanone], for which the inhibition at 10 µM on human ME3 enzyme, on human ME2 enzyme and on human ME1 enzyme was over 90% each time.

Consider `O=C(Cc1ccccc1)N1CCN(c2ccc(O)cn2)CC1` [I.6, 1-[4-(5-Hydroxy-pyridin-2-yl)-piperazin-1-yl]-2-phenyl-ethanone], for which the inhibition at 10 µM at human ME3 enzyme, at human ME2 enzyme and on human ME1 enzyme was over 90% throughout.

As to `O=C(c1c2ccccc2nc2ccccc12)N1CCN(c2ccc(O)cc2)CC1` [I.9, Acridin-9-yl-[4-(4-hydroxy-phenyl)-piperazin-1-yl]-methanone], the inhibition at 10 µM at human ME3 enzyme, at human ME2 enzyme and at human ME1 enzyme was over 90% in each case.

In the case of `O=C(Cc1ccccc1)N1CCN(c2ccc(O)cc2F)CC1` [I.11, 1-[4-(2-Fluoro-4-hydroxy-phenyl)-piperazin-1-yl]-2-phenyl-ethanone], the inhibition at 10 µM at human ME3 enzyme was over 90%; at human ME2 enzyme, 70 to 89%; on human ME1 enzyme, over 90%.

Turning to `O=C(c1c2ccccc2cc2ccccc12)N1CCN(c2ccc(O)cc2)CC1` [I.21, Anthracen-9-yl-[4-(4-hydroxy-phenyl)-piperazin-1-yl]-methanone], the inhibition at 10 µM on human ME3 enzyme, at human ME2 enzyme and on human ME1 enzyme was over 90% each time.

In the case of `O=C(Cc1ccc(C(F)(F)F)cc1)N1CCN(c2ccc(O)cc2)CC1` [I.28, 1-[4-(4-Hydroxy-phenyl)-piperazin-1-yl]-2-(4-trifluoro-methyl-phenyl)-ethanone], the inhibition at 10 µM at human ME3 enzyme and on human ME1 enzyme was over 90% each time.

Consider `O=C(O)c1cccc(-c2cc(C(=O)N3CCN(c4ccc(O)cc4)CC3)ccn2)c1` [I.39, 3-[4-[4-(4-Hydroxy-phenyl)-piperazine-1-carbonyl]-2-pyridyl]-benzoic acid], for which the inhibition at 10 µM at human ME3 enzyme, on human ME2 enzyme and on human ME1 enzyme was over 90% each time.

With `O=C(C=C(c1ccccc1)c1ccccc1)N1CCN(c2ccc(O)cc2)CC1` [I.40, 1-[4-(4-hydroxyphenyl)piperazin-1-yl]-3,3-diphenylprop-2-en-1-one], the inhibition at 10 µM on human ME3 enzyme, on human ME2 enzyme and on human ME1 enzyme was over 90% in each case.

Turning to `O=C(O)c1cccc(-c2cc(C(=O)N3CCN(c4ccc(O)cc4)CC3)cc(N3CCOCC3)n2)c1` [I.41, 3-[4-[4-(4-Hydroxy-phenyl)-piperazine-1-carbonyl]-6-morpholino-2-pyridyl]-benzoic acid], the inhibition at 10 µM on human ME3 enzyme, at human ME2 enzyme and on human ME1 enzyme was over 90% in each case.
